Results: US7462600B2, “Macrolides” (Pfizer Inc, priority 2004, dated 2008)
≈ marks a conversion by molar mass, not a printed value. Like-named read-outs stand apart in the source and are kept apart here.

Experiments:
Type in all cases: cell-based
[1] = test system: Streptococcus pyogenes 1079; assay: MIC, microtiter broth dilution (NCCLS M100-S14), S. pyogenes 1079 (ermB)
Method in brief: (§1)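 Panel strains, including macrolide-resistant isolates and their susceptible parents where available, are exposed to serial compound dilutions in microtiter trays. Growth inhibition is scored as MIC under NCCLS M100-S14 standards.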

[2] = test system: Streptococcus pneumoniae 1016; assay: MIC, microtiter broth dilution (NCCLS M100-S14), S. pneumoniae 1016 (susceptible)
Method in brief: as §1

[3] = test system: Streptococcus pneumoniae 1095; settings: microtiter broth dilution
Method in brief: as §1

[4] = test system: Streptococcus pneumoniae 1175; settings: microtiter broth dilution
Method in brief: as §1

[5] = test system: Haemophilus influenzae 1218; assay: MIC, microtiter broth dilution (NCCLS M100-S14), H. influenzae 1218 (susceptible)
Method in brief: as §1

[6] = S. pneumoniae 1016 (susceptible)
[7] = H. influenzae 1218 (susceptible)

| SMILES | MIC S. pyogenes 1079 ([1]; S. pyogenes 1079 (ermB)) | MIC S. pneumo. 1016 [2, 6] | MIC S. pneumo. 1095 ([3]; S. pneumoniae 1095 (ermB)) | MIC S. pneumo. 1175 ([4]; S. pneumoniae 1175 (mefA)) | MIC H. influenzae 1218 [5, 7] | MIC S. pyogenes 1079 ([1]; Streptococcus pyogenes 1079) | MIC S. pneumo. 1016 ([2]; Streptococcus pneumoniae 1016) | MIC S. pneumo. 1095 ([3]; Streptococcus pneumoniae 1095) | MIC S. pneumo. 1175 ([4]; Streptococcus pneumoniae 1175) | MIC H. influenzae 1218 ([5]; Haemophilus influenzae 1218) |
| --- | --- | --- | --- | --- | --- | --- | --- | --- | --- | --- |
| CCC1OC(=O)C(C)C(=O)C(C)C(OC2OC(C)CC(N(C)C)C2O)C(C)(OC)CC(C)C(=O)C(C)C2N(CC3CCN(Cc4c[nH]c5ncccc45)C3)C(=O)OC12C [Example 11.05, 3-descladinosyl-11,12-dideoxy-6-O-methyl-3-oxo-12,11-(oxycarbonyl-(1-((1H-pyrrolo[2,3-b]pyridin-3-yl)-methyl)-((S)-pyrrolidin-3-yl)-methyl)-imino)-erythromycin A] | 4 µg/mL (≈ 4.84 µM) | <0.06 µg/mL | <0.06 µg/mL | 0.5 µg/mL (≈ 0.605 µM) | 0.5 µg/mL (≈ 0.605 µM) | – | – | – | – | – |
| CCC1OC(=O)C(C)C(=O)C(C)C(OC2OC(C)CC(N(C)C)C2O)C(C)(OC)CC(C)C(=O)C(C)C2N(C3CN(S(=O)(=O)c4ccc(-n5ccnc5)cc4)C3)C(=O)OC12C (centres unmarked) [Example 3.82, 3-descladinosyl-11,12-dideoxy-6-O-methyl-3-oxo-12,11-(oxycarbonyl-(1-(4-(1H-imidazol-1-yl)benzenesulfonyl)-azetidin-3-yl)-imino)erythromycin A] | – | – | – | – | – | 2 µg/mL (≈ 2.29 µM) | <0.06 µg/mL | <0.06 µg/mL | <0.06 µg/mL | 0.25 µg/mL (≈ 0.286 µM) |
| CCC1OC(=O)C(C)C(=O)C(C)C(OC2OC(C)CC(N(C)C)C2O)C(C)(OC)CC(C)C(=O)C(C)C2N(C3CN(Cc4ccnc5c4ncn5C)C3)C(=O)OC12C (centres unmarked) [Example 1.93, 3-descladinosyl-11,12-dideoxy-6-O-methyl-3-oxo-12,11-(oxycarbonyl-(1-(3-methyl-3H-imidazo[4,5-b]pyridine-7-methyl)-azetidin-3-yl)-imino)-erythromycin A] | – | – | – | – | – | 1 µg/mL (≈ 1.23 µM) | <0.063 µg/mL | <0.063 µg/mL | 1 µg/mL (≈ 1.23 µM) | 2 µg/mL (≈ 2.46 µM) |
| CCC1OC(=O)C(C)C(=O)C(C)C(OC2OC(C)CC(N(C)C)C2O)C(C)(OC)CC(C)C(=O)C(C)C2N(C3CN(C(c4ccccc4)c4ccncc4)C3)C(=O)OC12C (centres unmarked) [Example 1.69, 3-descladinosyl-11,12-dideoxy-6-O-methyl-3-oxo-12,11-(oxycarbonyl-(1-(phenyl-(pyridin-4-yl)-methyl)-azetidin-3-yl)-imino)erythromycin A] | – | – | – | – | – | 8 µg/mL (≈ 9.58 µM) | <0.06 µg/mL | <0.06 µg/mL | <0.06 µg/mL | 1 µg/mL (≈ 1.2 µM) |
| CCC1OC(=O)C(C)C(=O)C(C)C(OC2OC(C)CC(N(C)C)C2O)C(C)(OC)CC(C)C(=O)C(C)C2N(C3CN(S(=O)(=O)c4ccccc4S(C)(=O)=O)C3)C(=O)OC12C (centres unmarked) [Example 3.25, 2-(methylsulfonyl) benzenesulfonyl] | – | – | – | – | – | >64.00 µg/mL | <0.06 µg/mL | <0.06 µg/mL | 0.25 µg/mL (≈ 0.282 µM) | 1 µg/mL (≈ 1.13 µM) |
| CC[C@H]1OC(=O)[C@H](C)C(=O)[C@H](C)[C@@H](O[C@@H]2O[C@H](C)C[C@H](N(C)C)[C@H]2O)[C@](C)(OC)C[C@@H](C)C(=O)[C@H](C)[C@H]2N(C3CN(Cc4ccnc5c(C#N)cccc45)C3)C(=O)O[C@]12C [Example 1.95, 3-descladinosyl-11,12-dideoxy-6-O-methyl-3-oxo-12,11-(oxycarbonyl-(1-(quinoline-8-carbonitrile-4-methyl)-azetidin-3-yl)-imino)-erythromycin A] | – | – | – | – | – | 1 µg/mL (≈ 1.2 µM) | <0.063 µg/mL | 1 µg/mL (≈ 1.2 µM) | <0.063 µg/mL | 2 µg/mL (≈ 2.4 µM) |
| CCC1OC(=O)C(C)C(=O)C(C)C(OC2OC(C)CC(N(C)C)C2O)C(C)(OC)CC(C)C(=O)C(C)C2N(CC3CCN(C(=O)c4cc5cccnc5[nH]4)C3)C(=O)OC12C (centres unmarked) [13.15] | >64.00 µg/mL | <0.06 µg/mL | 2 µg/mL (≈ 2.38 µM) | 0.12 µg/mL (≈ 0.143 µM) | 4 µg/mL (≈ 4.76 µM) | – | – | – | – | – |
| CCC1OC(=O)C(C)C(=O)C(C)C(OC2OC(C)CC(N(C)C)C2O)C(C)(OC)CC(C)C(=O)C(C)C2N(CC3CCCN3C(=O)c3ccnc4[nH]cnc34)C(=O)OC12C (centres unmarked) [10.50] | >64.00 µg/mL | <0.06 µg/mL | 0.5 µg/mL (≈ 0.595 µM) | 2 µg/mL (≈ 2.38 µM) | 8 µg/mL (≈ 9.51 µM) | – | – | – | – | – |
| CCC1OC(=O)C(C)C(=O)C(C)C(OC2OC(C)CC(N(C)C)C2O)C(C)(OC)CC(C)C(=O)C(C)C2N(C3CN(S(=O)(=O)c4ccc(-c5nnc(C)o5)cc4)C3)C(=O)OC12C (centres unmarked) [Example 3.61, 3-descladinosyl-11,12-dideoxy-4-O-methyl-3-oxo-12,11-(oxycarbonyl-(1-(4-(5-methyl-1,3,4-oxadiazol-2-yl)benzenesulfonyl)-azetidin-3-yl)-imino)-erythromycin A] | – | – | – | – | – | 2 µg/mL (≈ 2.25 µM) | <0.06 µg/mL | 2 µg/mL (≈ 2.25 µM) | 0.12 µg/mL (≈ 0.135 µM) | 2 µg/mL (≈ 2.25 µM) |
| CC[C@H]1OC(=O)[C@H](C)C(=O)[C@H](C)[C@@H](O[C@@H]2O[C@H](C)C[C@H](N(C)C)[C@H]2O)[C@](C)(OC)C[C@@H](C)C(=O)[C@H](C)[C@H]2N(CC3(O)CN(C(=O)c4cccc5ccncc45)C3)C(=O)O[C@]12C [7.24] | >64.00 µg/mL | <0.06 µg/mL | 2 µg/mL (≈ 2.34 µM) | 1 µg/mL (≈ 1.17 µM) | 2 µg/mL (≈ 2.34 µM) | – | – | – | – | – |
| CCC1OC(=O)C(C)C(=O)C(C)C(OC2OC(C)CC(N(C)C)C2O)C(C)(OC)CC(C)C(=O)C(C)C2N(CC3CN(Cc4nc5ccccc5[nH]4)C3)C(=O)OC12C (centres unmarked) [4.16] | – | – | – | – | – | >64.00 µg/mL | <0.06 µg/mL | 2 µg/mL (≈ 2.46 µM) | 0.25 µg/mL (≈ 0.308 µM) | 0.5 µg/mL (≈ 0.616 µM) |
| CCC1OC(=O)C(C)C(=O)C(C)C(OC2OC(C)CC(N(C)C)C2O)C(C)(OC)CC(C)C(=O)C(C)C2N(C3CN(S(=O)(=O)c4ccc(-n5ccnc5)c(F)c4)C3)C(=O)OC12C (centres unmarked) [Example 3.81, 3-descladinosyl-11,12-dideoxy-4-O-methyl-3-oxo-12,11-(oxycarbonyl-(1-(3-fluoro-4-(1H-imidazol-1-yl)benzenesulfonyl)-azetidin-3-yl)-imino)-erythromycin A] | – | – | – | – | – | 4 µg/mL (≈ 4.48 µM) | <0.06 µg/mL | <0.06 µg/mL | <0.06 µg/mL | 1 µg/mL (≈ 1.12 µM) |
| CCC1OC(=O)C(C)C(=O)C(C)C(OC2OC(C)CC(N(C)C)C2O)C(C)(OC)CC(C)C(=O)C(C)C2N(C3CN(S(=O)(=O)c4ccccc4F)C3)C(=O)OC12C (centres unmarked) [Example 3.07, 2-fluorobenzenesulfonyl] | – | – | – | – | – | 16 µg/mL (≈ 19.4 µM) | <0.06 µg/mL | <0.06 µg/mL | <0.06 µg/mL | 0.5 µg/mL (≈ 0.605 µM) |
| CCC1OC(=O)C(C)C(=O)C(C)C(OC2OC(C)CC(N(C)C)C2O)C(C)(OC)CC(C)C(=O)C(C)C2N(C3CN(C(=O)Nc4cccc5nccnc45)C3)C(=O)OC12C (centres unmarked) [Example 2.09, N-(quinoxalin-8-yl) aminocarbonyl] | – | – | – | – | – | >64.00 µg/mL | <0.06 µg/mL | 16 µg/mL (≈ 19.1 µM) | 0.25 µg/mL (≈ 0.298 µM) | 8 µg/mL (≈ 9.54 µM) |
| CCC1OC(=O)C(C)C(=O)C(C)C(OC2OC(C)CC(N(C)C)C2O)C(C)(OC)CC(C)C(=O)C(C)C2N(C3CN(Cc4ccnc5[nH]c(C6CC6)nc45)C3)C(=O)OC12C (centres unmarked) [Example 1.89, 3-descladinosyl-11,12-dideoxy-6-O-methyl-3-oxo-12,11-(oxycarbonyl-(1-(2-cyclopropyl-3H-imidazo[4,5-b]pyridine-7-methyl)-azetidin-3-yl)-imino)-erythromycin A] | – | – | – | – | – | 1 µg/mL (≈ 1.19 µM) | <0.063 µg/mL | 0.5 µg/mL (≈ 0.596 µM) | <0.063 µg/mL | 4 µg/mL (≈ 4.77 µM) |
| CCC1OC(=O)C(C)C(=O)C(C)C(OC2OC(C)CC(N(C)C)C2O)C(C)(OC)CC(C)C(=O)C(C)C2N(CC3CCCN3C(=O)c3cccc4nccnc34)C(=O)OC12C (centres unmarked) [10.33] | >64.00 µg/mL | <0.06 µg/mL | <0.06 µg/mL | 0.25 µg/mL (≈ 0.293 µM) | 2 µg/mL (≈ 2.35 µM) | – | – | – | – | – |
| CCC1OC(=O)C(C)C(=O)C(C)C(OC2OC(C)CC(N(C)C)C2O)C(C)(OC)CC(C)C(=O)C(C)C2N(CC3CCCN3C(=O)c3cnc4ccccc4c3)C(=O)OC12C (centres unmarked) [10.07] | >64.00 µg/mL | <0.06 µg/mL | <0.06 µg/mL | 0.25 µg/mL (≈ 0.294 µM) | 2 µg/mL (≈ 2.35 µM) | – | – | – | – | – |
| CCC1OC(=O)C(C)C(=O)C(C)C(OC2OC(C)CC(N(C)C)C2O)C(C)(OC)CC(C)C(=O)C(C)C2N(C3CN(C(=O)NCc4ccc5ncccc5c4)C3)C(=O)OC12C (centres unmarked) [Example 2.10, N-((quinolin-6-yl)inethyl) aminocarbonyl] | – | – | – | – | – | >64.00 µg/mL | <0.06 µg/mL | 8 µg/mL (≈ 9.39 µM) | 0.25 µg/mL (≈ 0.293 µM) | 2 µg/mL (≈ 2.35 µM) |
| CCC(c1ccnc2ccccc12)N1CC(N2C(=O)OC3(C)C(CC)OC(=O)C(C)C(=O)C(C)C(OC4OC(C)CC(N(C)C)C4O)C(C)(OC)CC(C)C(=O)C(C)C23)C1 (mixture of isomers) [Example 1.61, 3-descladinosyl-11,12-dideoxy-6-O-methyl-3-oxo-12,11-(oxycarbonyl-(1-(1-(quinolin-4-yl)-propyl)-azetidin-3-yl)-imino)-erythromycin A] | – | – | – | – | – | 8 µg/mL | <0.06 µg/mL | <0.06 µg/mL | 0.25 µg/mL | 4 µg/mL |
